Measurements reported in patent publication US20230212129A1, “QUINAZOLINE DERIVATIVES USEFUL AS SELECTIVE HDAC6 INHIBITORS” (AnnJi Pharmaceutical Co., Ltd., priority 2020, published 2023).

Experiments:
HDAC1 = biological target: T1, HDAC1 (Homo sapiens, UniProt Q13547); assay: HDAC1 activity, acetylated-AMC-labeled peptide substrate; assay type: biochemical
T1 construct: GST (C); host or cells: baculovirus expression system, Sf9 insect cells (SP9 [sic])
Experimental: The activities of HDAC 1 and 6 were measured by using an acetylated-AMC-labeled peptide substrate, a fluorogenic peptide from p53 residues 379-382 (RHIKKAc). The proteins involved in the assay are as the followings (1) Human HIDAC1 (Genflank Accession No. NM_004964): Full length with C-terminal GST tag, MW=79.9 kDa, expressed by baculovirus expression system in SP9 cells; and (2) Human HIDAC6 (Genflank Accession No. BC069243): Full length with N-terminal GST tag, MW=159 kDa, expressed by baculovirus expression system in Sf9 cells.

[1] = Oral pharmacokinetics (Table II); design: AUC: concentration or dose not given beside the values; settings: in vivo
[2] = tested on: cisplatin-induced neuropathy; assay: Cisplatin-induced neuropathy, von Frey paw-withdrawal murine model; assay type: in vivo, Balb/c mice; settings: oral once daily Day 16 to 29 (pregabalin 15 mg/kg one hour prior to test); vs cisplatin control; FIG. 4
Experimental: To understand whether COMPOUND 2 exerts neuron protective activities in cisplatin-induced neuropathy, a paw-withdrawal murine model is deployed. The 50% paw withdrawal threshold (PWT) to a static mechanical stimulus was assessed using von Frey filament and up-and-down method following the procedure described by Chaplan (1994). Mechanical allodynia, a painful sensation caused by innocuous stimuli like light touch, was assessed by the manual von Frey test once per week (on day 7, 14, 21, 28, […], and 42). The animals indicated sensation by pulling back its paw. The minimum force leading to withdrawal of the paw was regarded as the reflex threshold.
Balb/c mice weighing about 25±2 gram were given cisplatin intraperitoneally at the dose of 1.5 mg/kg for 5 consecutive days (cumulative dose of 7.5 mg/kg), followed by 5 days of recovery. The cisplatin administration cycle was repeated once more to reach a cumulative dose of 15 mg/kg to induce neuropathy. Test compounds, COMPOUND 2 and ACY1215, were orally administered once daily for 2 weeks (except for the weekends) from Day 16 to 29. Pregabalin, a drug known to provide transient pain relief, was administered at a dose of 15 mg/kg prior to each von Frey stimulus test to serve as the positive control.

[3] = tested on: bleomycin-induced pulmonary fibrosis; assay: Bleomycin-induced pulmonary fibrosis model, lung histology (H&E); assay type: in vivo, mice
Experimental: (§1) The activities of compounds COMPOUND 2 and COMPOUND 33 in preventing and/or treating pulmonary fibrosis were examined using a bleomycin-induced pulmonary fibrosis model, a model that involves deactivated bleomycin hydrolase, elevated oxidative stress, and increased inflammatory cytokines. In the prevention model, mice were administered bleomycin intratracheally an hour in prior to the first oral administration of 30 mg/kg testing compounds. The treatment continued for 21 consecutive days, and mice were sacrificed to examine histological changes of lung tissues were analyzed by H&E staining to evaluate the degree of lung fibrosis. Additionally, the HDAC6 inhibitors, COMPOUND 2 and COMPOUND 33, were tested for their effect in aiding animal recovery from lung injury and pulmonary fibrosis post injury.

IL-6 = IL-6 in bronchoalveolar lavage fluid, bleomycin model; assay type: in vivo, mice; settings: prevention model, 30 mg/kg oral, 21 days; FIG. 6
Experimental: as §1, with “fibrosis.” for “fibrosis. Additionally, the HDAC6 inhibitors, COMPOUND 2 and COMPOUND 33, were tested for their effect in aiding animal recovery from lung injury and pulmonary fibrosis post injury.”

[4] = tested on: BioMAP Fibrosis panel (REMyoF, SAEMyoF, MyoF systems); assay: BioMAP Fibrosis panel cytokine/biomarker profiles; assay type: cell-based
Experimental: The HDAC6 inhibitor compounds were tested in a commercially available platform, BioMAP, for the cytokine profiles in related to tissue injuries. The BioMAP Fibrosis panel included 3 systems stimulated to model TGFβ and TNFα driven myofibroblast differentiation during chronic inflammation and wound healing in different tissue settings. Fibrotic disease of the kidney associated with end-stage renal failure was captured in the REMyoF system consisting of a co-culture of renal proximal tubule epithelial cells and adult fibroblasts. Interstitial lung diseases, including pulmonary fibrotic diseases such as idiopathic pulmonary fibrosis (IPF), was modeled by co-culturing small airway epithelial cells and adult fibroblasts in the SAEMyoF system. Both co-culture systems modeled the paracrine interaction between myofibroblasts and the proximally located epithelial cells, while the impact on fibroblasts alone was interrogated using the monoculture MyoF system. A signature BioMAP profile that is reflective of the changes in protein biomarker readouts within an individual system was generated for each testing compounds. Biomarker readouts selected for therapeutic and biological relevance were predictive for disease outcomes or specific drug effects, and was validated using agents with known clinical efficacy. Each readout was measured quantitatively by immune-based methods that detect protein (e.g., ELISA).

[5] = tested on: paclitaxel-induced peripheral neuropathy; assay: Paclitaxel-induced peripheral neuropathy, Von Frey test; assay type: in vivo, Sprague-Dawley (SD) rats
Experimental: Male Sprague-Dawley (SD) rats, weighing 320±30 grams, were given paclitaxel intraperitoneally at the dose of 6 mg/kg for 5 consecutive days with a total cumulative dose of 30 mg/kg to induce chemotherapy-induced peripheral neuropathy.
Compound 2 or vehicle was administered orally once daily for 2 weeks during the weekdays (Days 8 to 12 and 15-19). Mechanical allodynia is assessed by the manual Von Frey test once per week. The animals are given 20 to 30 minutes to acclimatize prior to the testing. The paw is pressed with a series of 8 manual Von Frey monofilaments with logarithmically incremental stiffness [3.61 (0.4 g), 3.84 (0.6 g), 4.08 (1.0 g), 4.31 (2.0 g), 4.56 (4.0 g), 4.93 (8.0 g), 5.18 (15.0 g) and (26.0 g)]. The manual Von Frey monofilament was applied perpendicularly from underneath the mesh floor to the central plantar surface with sufficient force to cause a slight buckling against the paw, and held for approximately 6-8 seconds. A positive response was noted if the paw is sharply withdrawn; ambulation is considered an ambiguous response, and in such cases, the stimulus is reapplied. The 50% paw withdrawal threshold (PWT) to a static mechanical stimulus was assessed using Von Frey filament and up-and-down method.
Von Frey data were presented as mean±SEM (Standard Error of the Mean). Treatment groups were compared to the paclitaxel control using Student's T-test. A p value <0.05 is considered to represent a significant difference.

T1 sequence (Q13547 whole entry): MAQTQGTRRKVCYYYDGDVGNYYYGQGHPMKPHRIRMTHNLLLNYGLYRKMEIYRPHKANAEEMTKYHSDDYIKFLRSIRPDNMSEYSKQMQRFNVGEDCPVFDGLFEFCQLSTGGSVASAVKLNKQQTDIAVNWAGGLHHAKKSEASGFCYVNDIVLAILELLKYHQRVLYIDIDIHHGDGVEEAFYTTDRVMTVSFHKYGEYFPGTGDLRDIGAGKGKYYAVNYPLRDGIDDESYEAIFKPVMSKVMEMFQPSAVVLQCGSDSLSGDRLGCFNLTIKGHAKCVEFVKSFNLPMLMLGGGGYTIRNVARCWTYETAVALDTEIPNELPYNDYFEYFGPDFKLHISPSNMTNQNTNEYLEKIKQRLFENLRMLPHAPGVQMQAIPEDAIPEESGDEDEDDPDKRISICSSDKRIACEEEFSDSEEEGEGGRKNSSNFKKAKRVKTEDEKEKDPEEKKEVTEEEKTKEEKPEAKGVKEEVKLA

CCc1nc2cc(F)c(/C=C/C(=O)NO)cc2c(=O)n1-c1c(C)cccc1C [Compound 2, (E)-3-(3-(2,6-dimethylphenyl)-2-ethyl-7-fluoro-4-oxo-3,4-dihydroquinazolin-6-yl)-N-hydroxyacrylamide]
IC50 (HDAC1): 5.17 µM
Cmax [1]: 1150 ng/mL
AUC ([1]; unit inferred): 12500 ng·h/mL
mean withdrawal threshold (50% PWT) [2]: significantly increased the mean withdrawal threshold
development of lung fibrosis ([3]; prevention model, 30 mg/kg oral, 21 consecutive days, FIG. 5): markedly decreased the development of lung fibrosis
recovery from lung injury and pulmonary fibrosis post injury ([3]; treatment post injury): protective effect in pulmonary inflammatory response and pulmonary fibrosis
IL-6 level in the BALF (IL-6): suppressed IL-6 level in the BALF
fibrosis-related matrix activities ([4]; BioMAP readouts): decreased TIMP-1, MMP-1, Collagen I, Collagen III, MMP-9
inflammation-related activities ([4]; BioMAP readouts): decreased M-CSF, VCAM-1, sIL-6, MCP-1; increased I-TAC
myofibroblast activation-related activities ([4]; BioMAP readouts): decreased αSMA, N-Cadherin
tissue remodeling/wound healing activities ([4]; BioMAP readouts): decreased EGFR, tPA, uPA, bFGF, sVEGF
activities on cytokines contributing to fibrosis ([4]; compared with nintedanib): marked activities in decreasing TNF-α, IL-1, IL-6, MMP-9, VEGF, and collagen I
duration of effect after the dosing was stopped ([5]; 15 and 30 mg/kg): ≥ 14 days
sensitivity to the mechanical stimulation ([5]; 15 and 30 mg/kg, starting from study Day 14): significantly reduced the sensitivity
pain-relief after dosing was stopped ([5]; FIG. 7): maintained for at least two weeks after dosing was stopped
threshold of mean withdrawal force ([5]; vs vehicle, from study Day 14, oral once daily Days 8 to 12 and 15-19): significant increase in the threshold of mean withdrawal force
